Measured values published in the OligoGym collection.
HELM strings list units from the 5' end as sugar, base in round brackets, then linkage (d deoxyribose, r ribose, m 2'-O-methyl, p phosphodiester). [sp] = phosphorothioate linkage

Key:
[1] = target: CDKN2B-AS1; experiment: HEK293-TLR7, 100 nM ASO, then resiquimod
[2] = target: CDKN2B-AS1; experiment: HEK293-TLR8, 100 nM ASO, then resiquimod

Substance | TLR7 signal (NF-kB luciferase) (% of resiquimod alone) [1] | TLR8 potentiation (NF-kB luciferase) (fold of resiquimod alone) [2]
RNA1{m(A)[sp].m(A)[sp].m(A)[sp].m(A)[sp].m(G)[sp].d(A)[sp].d(T)[sp].d(T)[sp].d(A)[sp].d(T)[sp].d(C)[sp].d(T)[sp].d(T)[sp].d(C)[sp].d(T)[sp].m(U)[sp].m(U)[sp].m(U)[sp].m(A)[sp].m(A)}$$$$ | 47.4 | 3.19
RNA1{m(A)[sp].m(A)[sp].m(A)[sp].m(A)[sp].m(U)[sp].d(A)[sp].d(A)[sp].d(G)[sp].d(G)[sp].d(G)[sp].d(G)[sp].d(A)[sp].d(A)[sp].d(T)[sp].d(A)[sp].m(G)[sp].m(G)[sp].m(G)[sp].m(G)[sp].m(A)}$$$$ | 68.5 | 0.86
RNA1{m(A)[sp].m(A)[sp].m(A)[sp].m(G)[sp].m(A)[sp].d(T)[sp].d(T)[sp].d(A)[sp].d(T)[sp].d(C)[sp].d(T)[sp].d(T)[sp].d(C)[sp].d(T)[sp].d(T)[sp].m(U)[sp].m(U)[sp].m(A)[sp].m(A)[sp].m(U)}$$$$ | 49.3 | 2.96
RNA1{m(A)[sp].m(A)[sp].m(A)[sp].m(G)[sp].m(C)[sp].d(A)[sp].d(G)[sp].d(T)[sp].d(C)[sp].d(T)[sp].d(C)[sp].d(C)[sp].d(A)[sp].d(T)[sp].d(G)[sp].m(U)[sp].m(C)[sp].m(C)[sp].m(C)[sp].m(A)}$$$$ | 27.2 | 1.9
RNA1{m(A)[sp].m(A)[sp].m(G)[sp].m(A)[sp].m(U)[sp].d(T)[sp].d(A)[sp].d(T)[sp].d(C)[sp].d(T)[sp].d(T)[sp].d(C)[sp].d(T)[sp].d(T)[sp].d(T)[sp].m(U)[sp].m(A)[sp].m(A)[sp].m(U)[sp].m(U)}$$$$ | 42.1 | 2.91
RNA1{m(A)[sp].m(A)[sp].m(G)[sp].m(C)[sp].m(A)[sp].d(G)[sp].d(T)[sp].d(C)[sp].d(T)[sp].d(C)[sp].d(C)[sp].d(A)[sp].d(T)[sp].d(G)[sp].d(T)[sp].m(C)[sp].m(C)[sp].m(C)[sp].m(A)[sp].m(G)}$$$$ | 35.7 | 1.79
RNA1{m(A)[sp].m(A)[sp].m(G)[sp].m(G)[sp].m(U)[sp].d(G)[sp].d(G)[sp].d(C)[sp].d(C)[sp].d(A)[sp].d(C)[sp].d(A)[sp].d(G)[sp].d(G)[sp].d(C)[sp].m(A)[sp].m(A)[sp].m(C)[sp].m(G)[sp].m(U)}$$$$ | 57.9 | 0.58
RNA1{m(A)[sp].m(A)[sp].m(U)[sp].m(A)[sp].m(U)[sp].d(C)[sp].d(T)[sp].d(G)[sp].d(C)[sp].d(T)[sp].d(G)[sp].d(C)[sp].d(C)[sp].d(C)[sp].d(A)[sp].m(C)[sp].m(C)[sp].m(U)[sp].m(U)[sp].m(C)}$$$$ | 43.7 | 1.79
RNA1{m(A)[sp].m(A)[sp].m(U)[sp].m(U)[sp].m(U)[sp].d(A)[sp].d(A)[sp].d(A)[sp].d(G)[sp].d(C)[sp].d(A)[sp].d(T)[sp].d(G)[sp].d(A)[sp].d(A)[sp].m(U)[sp].m(A)[sp].m(U)[sp].m(U)[sp].m(A)}$$$$ | 46.8 | 3.29
RNA1{m(A)[sp].m(G)[sp].m(A)[sp].m(A)[sp].m(A)[sp].d(G)[sp].d(A)[sp].d(A)[sp].d(G)[sp].d(C)[sp].d(A)[sp].d(A)[sp].d(A)[sp].d(G)[sp].d(A)[sp].m(U)[sp].m(U)[sp].m(C)[sp].m(A)[sp].m(A)}$$$$ | 43 | 1.96
RNA1{m(A)[sp].m(G)[sp].m(A)[sp].m(U)[sp].m(U)[sp].d(A)[sp].d(T)[sp].d(C)[sp].d(T)[sp].d(T)[sp].d(C)[sp].d(T)[sp].d(T)[sp].d(T)[sp].d(T)[sp].m(A)[sp].m(A)[sp].m(U)[sp].m(U)[sp].m(U)}$$$$ | 37.1 | 3.02
RNA1{m(A)[sp].m(G)[sp].m(C)[sp].m(A)[sp].m(G)[sp].d(T)[sp].d(C)[sp].d(T)[sp].d(C)[sp].d(C)[sp].d(A)[sp].d(T)[sp].d(G)[sp].d(T)[sp].d(C)[sp].m(C)[sp].m(C)[sp].m(A)[sp].m(G)[sp].m(G)}$$$$ | 25.5 | 2.81
RNA1{m(A)[sp].m(G)[sp].m(G)[sp].m(A)[sp].m(U)[sp].d(T)[sp].d(A)[sp].d(A)[sp].d(A)[sp].d(A)[sp].d(C)[sp].d(A)[sp].d(G)[sp].d(A)[sp].d(T)[sp].m(U)[sp].m(A)[sp].m(A)[sp].m(U)[sp].m(A)}$$$$ | 36.3 | 2.19
RNA1{m(A)[sp].m(G)[sp].m(G)[sp].m(C)[sp].m(C)[sp].d(T)[sp].d(C)[sp].d(C)[sp].d(A)[sp].d(G)[sp].d(T)[sp].d(G)[sp].d(T)[sp].d(C)[sp].d(T)[sp].m(U)[sp].m(C)[sp].m(U)[sp].m(C)[sp].m(C)}$$$$ | 44.7 | 2.19
RNA1{m(A)[sp].m(G)[sp].m(U)[sp].m(C)[sp].m(U)[sp].d(C)[sp].d(C)[sp].d(A)[sp].d(T)[sp].d(G)[sp].d(T)[sp].d(C)[sp].d(C)[sp].d(C)[sp].d(A)[sp].m(G)[sp].m(G)[sp].m(C)[sp].m(C)[sp].m(U)}$$$$ | 35.8 | 1.64
RNA1{m(A)[sp].m(G)[sp].m(U)[sp].m(G)[sp].m(G)[sp].d(C)[sp].d(A)[sp].d(C)[sp].d(A)[sp].d(T)[sp].d(A)[sp].d(C)[sp].d(C)[sp].d(A)[sp].d(C)[sp].m(A)[sp].m(C)[sp].m(C)[sp].m(C)[sp].m(U)}$$$$ | 42 | 2.24
RNA1{m(A)[sp].m(U)[sp].m(A)[sp].m(U)[sp].m(C)[sp].d(T)[sp].d(G)[sp].d(C)[sp].d(T)[sp].d(G)[sp].d(C)[sp].d(C)[sp].d(C)[sp].d(A)[sp].d(C)[sp].m(C)[sp].m(U)[sp].m(U)[sp].m(C)[sp].m(U)}$$$$ | 47.5 | 2.55
RNA1{m(A)[sp].m(U)[sp].m(U)[sp].m(U)[sp].m(C)[sp].d(C)[sp].d(A)[sp].d(C)[sp].d(A)[sp].d(T)[sp].d(G)[sp].d(C)[sp].d(C)[sp].d(C)[sp].d(A)[sp].m(G)[sp].m(U)[sp].m(G)[sp].m(U)[sp].m(U)}$$$$ | 32 | 2.06
RNA1{m(C)[sp].m(A)[sp].m(G)[sp].m(G)[sp].m(C)[sp].d(C)[sp].d(T)[sp].d(C)[sp].d(C)[sp].d(A)[sp].d(G)[sp].d(T)[sp].d(G)[sp].d(T)[sp].d(C)[sp].m(U)[sp].m(U)[sp].m(C)[sp].m(U)[sp].m(C)}$$$$ | 54.1 | 2.02
